Assay results from PMC7206119, “RIP1 inhibition blocks inflammatory diseases but not tumor growth or metastases” (Cell Death and Differentiation, 2019).

What was measured:
Assay in all cases: biochemical
Set-up in all cases: DiscoverX kinase panel, active-site competition binding (KINOMEscan type), percent of control at one concentration
Conditions in all cases: competition binding, percent of control
RIOK3 = RIOK3 (Homo sapiens, UniProt O14730)
GSK3A = GSK3A (Homo sapiens, UniProt P49840)
[1] = molecular target: T1, ABL1(E255K)-phosphorylated (Homo sapiens, UniProt P00519, E255K)
T1 construct: phosphorylated

YANK1 = molecular target: T2, YANK1 (Homo sapiens, UniProt Q8WU08)
T2 construct: gene STK32A
T2 sequence (Q8WU08 whole entry): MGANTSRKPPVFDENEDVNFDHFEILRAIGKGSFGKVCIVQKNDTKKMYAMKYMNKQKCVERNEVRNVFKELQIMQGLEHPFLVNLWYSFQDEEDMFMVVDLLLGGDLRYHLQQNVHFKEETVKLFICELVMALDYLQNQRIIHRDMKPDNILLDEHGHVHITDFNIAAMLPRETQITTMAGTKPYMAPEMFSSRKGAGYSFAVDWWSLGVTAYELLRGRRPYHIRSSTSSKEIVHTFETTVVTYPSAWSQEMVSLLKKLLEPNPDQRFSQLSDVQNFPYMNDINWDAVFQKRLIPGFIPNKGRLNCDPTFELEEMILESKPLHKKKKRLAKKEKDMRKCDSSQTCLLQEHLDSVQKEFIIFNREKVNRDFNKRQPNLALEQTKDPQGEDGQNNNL

MEK6 = molecular target: T3, MEK6 (Homo sapiens, UniProt P52564)
T3 construct: gene MAP2K6

TAOK1 = TAOK1 (Homo sapiens, UniProt Q7L7X3)
BIKE = molecular target: T4, BIKE (Homo sapiens, UniProt Q9NSY1)
T4 construct: gene BMP2K

DMPK = DMPK (Homo sapiens, UniProt Q09013)
MAP4K3 = MAP4K3 (Homo sapiens, UniProt Q8IVH8)
ERK8 = molecular target: T5, ERK8 (Homo sapiens, UniProt Q8TD08)
T5 construct: gene MAPK15
T5 sequence (Q8TD08 whole entry): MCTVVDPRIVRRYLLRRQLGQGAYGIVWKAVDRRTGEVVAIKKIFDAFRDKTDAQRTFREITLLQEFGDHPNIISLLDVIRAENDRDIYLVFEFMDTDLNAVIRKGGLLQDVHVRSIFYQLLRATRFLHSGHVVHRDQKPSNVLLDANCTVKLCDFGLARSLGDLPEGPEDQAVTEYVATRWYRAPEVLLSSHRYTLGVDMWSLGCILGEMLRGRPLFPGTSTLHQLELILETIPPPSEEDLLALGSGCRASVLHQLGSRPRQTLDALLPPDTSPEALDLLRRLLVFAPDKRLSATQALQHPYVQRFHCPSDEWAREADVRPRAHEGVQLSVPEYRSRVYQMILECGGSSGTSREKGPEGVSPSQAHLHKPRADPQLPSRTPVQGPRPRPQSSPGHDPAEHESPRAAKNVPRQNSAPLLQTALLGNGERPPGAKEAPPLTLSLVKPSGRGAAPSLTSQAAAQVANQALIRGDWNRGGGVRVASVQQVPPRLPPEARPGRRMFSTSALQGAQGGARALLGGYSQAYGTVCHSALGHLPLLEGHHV

ROCK1 = ROCK1 (Homo sapiens, UniProt Q13464)
AMPK-alpha2 = molecular target: T6, AMPK-alpha2 (Homo sapiens, UniProt P54646)
T6 construct: gene PRKAA2
T6 sequence (P54646 whole entry): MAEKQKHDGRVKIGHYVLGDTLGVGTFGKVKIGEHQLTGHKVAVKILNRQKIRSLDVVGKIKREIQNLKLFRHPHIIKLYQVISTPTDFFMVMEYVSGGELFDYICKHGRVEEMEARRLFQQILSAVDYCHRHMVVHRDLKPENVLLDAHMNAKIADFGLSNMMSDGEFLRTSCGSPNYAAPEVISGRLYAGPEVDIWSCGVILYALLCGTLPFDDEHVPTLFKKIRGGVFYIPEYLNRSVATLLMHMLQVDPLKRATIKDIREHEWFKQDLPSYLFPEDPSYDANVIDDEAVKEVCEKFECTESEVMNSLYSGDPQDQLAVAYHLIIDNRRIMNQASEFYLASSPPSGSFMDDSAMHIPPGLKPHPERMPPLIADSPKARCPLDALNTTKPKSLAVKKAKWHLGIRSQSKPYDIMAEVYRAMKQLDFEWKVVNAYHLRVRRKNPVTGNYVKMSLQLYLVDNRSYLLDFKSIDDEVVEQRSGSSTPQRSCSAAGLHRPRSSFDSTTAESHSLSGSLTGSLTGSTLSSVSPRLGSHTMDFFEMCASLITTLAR

KIT(V559D,T670I) = KIT(V559D,T670I) (Homo sapiens, UniProt P10721, T670I/V559D)
BMPR2 = BMPR2 (Homo sapiens, UniProt Q13873)
Sequence of BMPR2 (Q13873 whole entry): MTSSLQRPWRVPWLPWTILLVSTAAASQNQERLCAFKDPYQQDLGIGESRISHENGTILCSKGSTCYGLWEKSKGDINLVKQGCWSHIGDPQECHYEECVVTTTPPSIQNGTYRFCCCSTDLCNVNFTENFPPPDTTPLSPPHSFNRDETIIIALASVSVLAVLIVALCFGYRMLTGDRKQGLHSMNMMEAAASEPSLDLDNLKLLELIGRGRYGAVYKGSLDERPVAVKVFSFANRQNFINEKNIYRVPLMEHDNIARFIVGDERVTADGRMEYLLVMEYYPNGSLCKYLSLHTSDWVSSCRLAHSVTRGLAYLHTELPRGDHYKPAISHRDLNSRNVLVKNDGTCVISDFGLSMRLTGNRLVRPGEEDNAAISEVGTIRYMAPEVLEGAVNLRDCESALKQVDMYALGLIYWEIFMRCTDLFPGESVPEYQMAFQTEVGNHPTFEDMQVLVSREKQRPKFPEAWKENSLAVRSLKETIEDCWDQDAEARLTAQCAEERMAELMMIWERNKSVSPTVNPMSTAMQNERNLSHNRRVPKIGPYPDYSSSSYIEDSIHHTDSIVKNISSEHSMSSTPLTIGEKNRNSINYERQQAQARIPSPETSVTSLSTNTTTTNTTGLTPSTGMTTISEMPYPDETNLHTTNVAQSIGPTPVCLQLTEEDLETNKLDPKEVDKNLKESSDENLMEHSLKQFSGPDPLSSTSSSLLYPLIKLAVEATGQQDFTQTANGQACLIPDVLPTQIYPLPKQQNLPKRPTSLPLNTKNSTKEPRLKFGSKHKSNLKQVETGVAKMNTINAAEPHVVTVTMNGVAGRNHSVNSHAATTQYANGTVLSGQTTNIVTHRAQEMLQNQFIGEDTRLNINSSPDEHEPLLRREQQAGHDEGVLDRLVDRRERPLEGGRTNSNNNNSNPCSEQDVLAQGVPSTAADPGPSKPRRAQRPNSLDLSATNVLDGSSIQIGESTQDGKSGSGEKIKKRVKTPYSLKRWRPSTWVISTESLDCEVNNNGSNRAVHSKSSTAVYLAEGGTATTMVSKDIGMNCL

FGFR1 = FGFR1 (Homo sapiens, UniProt P11362)
INSRR = INSRR (Homo sapiens, UniProt P14616)
BRSK1 = BRSK1 (Homo sapiens, UniProt Q8TDC3)
PKN2 = PKN2 (Homo sapiens, UniProt Q16513)
GRK2 = GRK2 (Homo sapiens, UniProt P25098)
Sequence of GRK2 (P25098 whole entry): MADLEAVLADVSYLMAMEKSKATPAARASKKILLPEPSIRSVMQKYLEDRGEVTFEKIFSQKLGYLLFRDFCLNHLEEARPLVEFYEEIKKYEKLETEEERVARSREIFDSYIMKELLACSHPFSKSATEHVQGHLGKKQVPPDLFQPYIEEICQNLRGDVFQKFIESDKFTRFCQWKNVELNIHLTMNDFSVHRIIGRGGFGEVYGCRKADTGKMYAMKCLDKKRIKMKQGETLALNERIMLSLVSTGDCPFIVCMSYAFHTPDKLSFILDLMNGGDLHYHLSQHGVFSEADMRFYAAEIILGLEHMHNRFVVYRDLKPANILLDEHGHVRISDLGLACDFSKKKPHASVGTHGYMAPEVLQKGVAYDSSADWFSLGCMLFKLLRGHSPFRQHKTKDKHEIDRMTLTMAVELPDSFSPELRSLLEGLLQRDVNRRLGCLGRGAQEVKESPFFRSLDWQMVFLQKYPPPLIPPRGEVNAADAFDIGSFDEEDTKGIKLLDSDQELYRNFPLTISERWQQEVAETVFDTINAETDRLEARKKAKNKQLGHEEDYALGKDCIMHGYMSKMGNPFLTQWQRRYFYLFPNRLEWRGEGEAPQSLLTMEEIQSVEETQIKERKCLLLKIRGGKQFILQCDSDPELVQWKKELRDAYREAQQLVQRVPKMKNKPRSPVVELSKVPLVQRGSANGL

TAK1 = molecular target: T7, TAK1 (Homo sapiens, UniProt O43318)
T7 construct: gene MAP3K7
T7 sequence (O43318 whole entry): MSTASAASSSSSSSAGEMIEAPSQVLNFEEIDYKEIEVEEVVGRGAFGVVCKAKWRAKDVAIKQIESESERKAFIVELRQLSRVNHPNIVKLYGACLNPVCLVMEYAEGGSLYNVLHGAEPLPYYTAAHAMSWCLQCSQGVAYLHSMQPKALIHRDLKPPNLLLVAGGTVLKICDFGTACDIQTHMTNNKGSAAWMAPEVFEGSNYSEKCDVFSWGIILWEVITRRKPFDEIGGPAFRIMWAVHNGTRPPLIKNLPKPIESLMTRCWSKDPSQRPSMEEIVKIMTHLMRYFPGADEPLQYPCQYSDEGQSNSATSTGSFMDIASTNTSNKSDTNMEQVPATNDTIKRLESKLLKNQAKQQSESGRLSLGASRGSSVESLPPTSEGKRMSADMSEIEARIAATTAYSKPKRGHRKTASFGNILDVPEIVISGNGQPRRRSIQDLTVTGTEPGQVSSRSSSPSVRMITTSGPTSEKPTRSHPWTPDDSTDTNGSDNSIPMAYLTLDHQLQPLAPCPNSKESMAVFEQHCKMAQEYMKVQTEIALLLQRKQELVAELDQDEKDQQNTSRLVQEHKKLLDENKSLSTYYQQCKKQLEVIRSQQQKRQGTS

MAP4K4 = MAP4K4 (Homo sapiens, UniProt O95819)
Sequence of MAP4K4 (O95819 whole entry): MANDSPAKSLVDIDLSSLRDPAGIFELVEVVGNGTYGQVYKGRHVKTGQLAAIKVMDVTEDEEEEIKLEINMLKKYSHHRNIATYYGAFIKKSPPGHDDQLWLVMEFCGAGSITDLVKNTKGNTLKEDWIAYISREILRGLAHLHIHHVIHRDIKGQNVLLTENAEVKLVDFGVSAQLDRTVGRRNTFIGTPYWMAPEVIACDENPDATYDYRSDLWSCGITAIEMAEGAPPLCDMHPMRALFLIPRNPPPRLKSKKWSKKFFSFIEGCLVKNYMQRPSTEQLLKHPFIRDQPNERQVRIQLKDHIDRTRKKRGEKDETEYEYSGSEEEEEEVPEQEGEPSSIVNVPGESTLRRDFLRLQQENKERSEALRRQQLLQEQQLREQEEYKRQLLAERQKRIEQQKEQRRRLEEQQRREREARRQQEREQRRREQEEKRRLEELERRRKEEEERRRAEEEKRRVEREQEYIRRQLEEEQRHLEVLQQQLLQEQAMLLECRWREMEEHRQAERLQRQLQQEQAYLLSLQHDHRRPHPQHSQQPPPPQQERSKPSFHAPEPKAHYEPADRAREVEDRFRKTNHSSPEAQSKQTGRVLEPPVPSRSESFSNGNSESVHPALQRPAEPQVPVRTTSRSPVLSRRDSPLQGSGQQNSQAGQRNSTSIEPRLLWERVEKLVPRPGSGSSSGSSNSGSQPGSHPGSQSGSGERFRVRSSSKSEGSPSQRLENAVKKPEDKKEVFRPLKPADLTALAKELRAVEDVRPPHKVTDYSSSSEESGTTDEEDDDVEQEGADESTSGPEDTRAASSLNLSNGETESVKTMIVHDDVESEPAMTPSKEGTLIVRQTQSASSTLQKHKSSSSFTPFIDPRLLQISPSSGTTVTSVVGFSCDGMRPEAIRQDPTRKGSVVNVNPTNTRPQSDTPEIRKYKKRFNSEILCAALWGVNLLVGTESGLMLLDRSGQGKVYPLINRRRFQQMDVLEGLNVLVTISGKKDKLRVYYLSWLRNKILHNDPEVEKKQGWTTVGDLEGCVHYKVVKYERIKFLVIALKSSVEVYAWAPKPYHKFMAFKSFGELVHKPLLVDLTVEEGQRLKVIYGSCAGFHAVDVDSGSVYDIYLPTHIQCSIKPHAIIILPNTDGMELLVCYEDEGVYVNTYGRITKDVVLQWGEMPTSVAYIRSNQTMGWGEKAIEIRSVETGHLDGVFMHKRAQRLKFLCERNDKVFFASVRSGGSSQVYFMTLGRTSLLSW

COc1cc2c(cn1)N(C)C(=O)[C@@H](NC(=O)c1nc3n(n1)[C@H](c1ccccc1)CC3)CC2 [GNE684, (S)-N-((S)-7-methoxy-1-methyl-2-oxo-2,3,4,5-tetrahydro-1H-pyrido[3,4-b]azepin-3-yl)-5-phenyl-6,7-dihydro-5H-pyrrolo[1,2-b][1,2,4]triazole-2-carboxamide]
remaining binding at 10 µM (RIOK3): 100% | remaining binding at 10 µM (GSK3A): 63% | remaining binding at 10 µM [1]: 91% | remaining binding at 10 µM (YANK1): 100% | remaining binding at 10 µM (MEK6): 100% | remaining binding at 10 µM (TAOK1): 100% | remaining binding at 10 µM (BIKE): 100% | remaining binding at 10 µM (DMPK): 83% | remaining binding at 10 µM (MAP4K3): 99% | remaining binding at 10 µM (ERK8): 85% | remaining binding at 10 µM (ROCK1): 100% | remaining binding at 10 µM (AMPK-alpha2): 81% | remaining binding at 10 µM (KIT(V559D,T670I)): 100% | remaining binding at 10 µM (BMPR2): 100% | remaining binding at 10 µM (FGFR1): 92% | remaining binding at 10 µM (INSRR): 92% | remaining binding at 10 µM (BRSK1): 100% | remaining binding at 10 µM (PKN2): 84% | remaining binding at 10 µM (GRK2): 94% | remaining binding at 10 µM (TAK1): 100% | remaining binding at 10 µM (MAP4K4): 73%
